Assay results reported in US10526325B2, “Bicyclic heterocyclic derivatives” (Merck Patent GmbH, priority 2015, dated 2020).

How the values were obtained:
PDHK2 = PDHK2 (Homo sapiens (Human), UniProt Q15119); assay: Biochemical activity testing of PDHK2: PDC inactivation assay; details: human rec PDHK2, porcine heart PDC, 5 μM ATP, read-out: IC50 PDHK2 (enzyme assay)
Source text: Biochemical Activity Testing of PDHK2: PDC Inactivation Assay
The biochemical activity assay for PDHK2 is based on the inactivation of PDC through phosphorylation by PDHK2. The assay is run in two steps: the enzymatic PDHK2 reaction in which isolated PDC is phosphorylated by PDHK2 with ATP as co-substrate and the PDC activity assay in which pyruvate and NAD are converted to acetyl-CoA and NADH. The PDC activity correlates to the increase in NADH and thereby is detectable directly via the increasing fluorescence signal (Exc 340 nm, Em 450 nm). Inhibition of PDHK2 results in a lower phosphorylation status and thereby a less decrease in activity of PDC and a stronger increase in NADH fluorescence signal.
The PDC inactivation assay is performed in Greiner 384-well microtiter plates and is used for high throughput screen. 4 μl of PDHK2 (human, rec, Carna Bioscience, 10 ng/μl-137 nM final concentration) and PDC (isolated from porcine heart, Sigma-Aldrich, 20 mU/ml final concentration) are incubated in the absence or presence of the test compound (10 dilution concentrations) for 30 min at room temperature in kinase buffer (15 mM potassium phosphate buffer, pH 7.0, 60 mM KCl, 1.5 mM DTT, 2.5 mM MgCl2, 0.0125% (w/v) BSA, 0.125% Pluronic F-68). The kinase reaction is started by the addition of 4 μl ATP substrate solution (fc 5 μM in kinase buffer). After 30 min incubation at 37° C. 40 μl of PDC reaction solution (100 mM Tris/HCl, pH 7.8, 0.5 mM EDTA, 1 mM MgCl2, 50 mM NaF, 0.25 mM Coenzyme A, 5 mM pyruvate, 1 mM NAD, 5 mM DTT, 1 mM thiamine pyrophosphate) is added. The first fluorescence measurement is performed on a Perkin Elmer Envision (Exc 340 nm, Em 450 nm). The reaction is incubated for 45 min at room temperature. Afterwards a second fluorescence measurement is performed and the PDC activity is calculated by the difference between both measurements. As full value for the PDHK2 assay the inhibitor-free PDHK2 reaction is used. The pharmacological zero value used is DCA (Sigma-Aldrich) in a final concentration of 3 mM. The inhibitory values […] were determined using either the program Symyx Assay Explorer® or Condosseo® from GeneData.

human PDHK2 (12-407) = human PDHK2 (12-407) (Homo sapiens (Human), UniProt Q15119); assay: Isothermal titration calorimetry (ITC) binding; details: ITC at 30° C., pH 7.5
Description: Isothermal Titration Calorimetry
ITC measurements were performed with a VP-ITC micro calorimeter (Microcal, LLC/GE Healthcare Bio-Sciences Aft Uppsala, Sweden). In general titrations were performed by titrating the protein (50 μM) to the test compound (5 μM) in 12 μl injections. All binding experiments were carried out at 30° C. In general the test compounds were diluted form DMSO stock solutions into the measurement buffer with a maximum final concentration of 1% DMSO. The measurement buffer was 20 mM HEPES, 135 mM KCl, 1 mM TCEP, 2 mM MgCl2, 15 mM NaH2PO4, pH 7.5. The human PDHK2 (12-407) was produced in E. coli as his-tagged protein and purified by affinity chromatography. The tag was removed by side specific proteolysis. Before titration the protein buffer was changed to the measurement buffer containing the same DMSO concentration as the test compound dilution. ITC data analysis was performed using Origin 7 calorimetry software from the same supplier. For most measurements a binding model of one binding site was assumed. According to the applied mathematical model it is possible to calculate the binding constant (KA), the observed binding enthalpy (ΔH^obs) as well as the stoichiometry (N) of the formed complex.
Preceding analysis the raw data was corrected for the heats of dilution by extrapolating from the saturation value from the end of titration. In order to allow for direct comparison between the respective experimental series and protein preparations the protein concentration was corrected by referencing titrations to a well behaved standard inhibitor. The apparent stoichiometry values defined the fraction of binding competent protein and compensated for relative errors in protein concentration measurements. This corrected protein concentration was used to set up ITC experiment series with test compounds. Any deviations from ideal 1:1 stoichiometry observed here were attributed to errors in compound concentration. This nominal compound concentration was corrected as well to achieve 1:1 stoichiometry in the fit.

[1] = test system: PDH-E1alpha (pSer300) in HEK293T cells; assay: Cellular immunofluorescence assay, PDH-E1alpha (pSer300) in HEK293T cells; assay type: cell-based, human; details: Homo sapiens, HEK-293T, 5 hours incubation, anti-PDH-E1alpha (pSer300) immunofluorescence, read-out: IC50 (cell data)
Description: Cellular Assay for Determination of Compound Activities
Compound activities were determined in a cellular immunofluorescence assay. Human HEK293T cells were seeded into black 384-well plates with clear bottom and grown overnight.
Next day, test compounds were added to the wells and the plates incubated for 5 hours. Following this, cells were fixed with formaldehyde, permeabilised and blocked. The primary antibody, Anti-PDH-E1alpha (pSer300), AP1064 (Merck Millipore) was added and incubated overnight in the plate wells. Next, cells were washed and the secondary antibody, Alexa Fluor 488, goat anti-rabbit ab (A-11008, Invitrogen) was added together with Hoechst 33258 (H3569, Invitrogen) and incubated for 1 hour in the plate wells. Finally, cells were washed and the plates were measured on the laser scanning cytometer acumen hci (TTpLabtech).
The raw data were normalized against a pharmacological inhibitor control and dose response curves were generated by plotting the percent effect values using the software package Genedata screener (Genedata).

Row | Compound | IC50 (PDHK2) [µM] | Kd (human PDHK2 (12-407)) [µM] | IC50 [1] [µM]
1 | C[C@@H]1CN(C(=O)C(C)(C)O)Cc2cnn(-c3ccc(F)cc3)c21 [Compound A42, 1-[(R)-1-(4-Fluoro-phenyl)-7-methyl-1,4,6,7-tetrahydro-pyrazolo[4,3-c]pyridin-5-yl]-2-hydroxy-2-methyl-propan-1-one] | 0.3 to 3 | < 0.3 | –
2 | C[C@H]1CN(C(=O)[C@@](C)(O)C(F)(F)F)Cc2cnn(-c3ccc(F)cc3F)c21 [Compound A21, (R)-1-[(S)-1-(2,4-Difluoro-phenyl)-7-methyl-1,4,6,7-tetrahydro-pyrazolo[4,3-c]pyridin-5-yl]-3,3,3-trifluoro-2-hydroxy-2-methyl-propan-1-one] | 0.3 to 3 | – | –
3 | C[C@H]1CN(C(=O)[C@@](C)(O)C(F)(F)F)Cc2cnn(-c3ncccc3F)c21 [Compound A33, (R)-3,3,3-Trifluoro-1-[(S)-1-(3-fluoro-pyridin-2-yl)-7-methyl-1,4,6,7-tetrahydro-pyrazolo[4,3-c]pyridin-5-yl]-2-hydroxy-2-methyl-propan-1-one] | 3 to 50 | – | –
4 | C[C@H]1CN(C(=O)[C@@](C)(O)C(F)(F)F)Cc2cnn(-c3ccccc3F)c21 [Compound A25, (R)-3,3,3-Trifluoro-1-[(S)-1-(2-fluoro-phenyl)-7-methyl-1,4,6,7-tetrahydro-pyrazolo[4,3-c]pyridin-5-yl]-2-hydroxy-2-methyl-propan-1-one] | 0.3 to 3 | – | –
5 | COc1ncc(F)c(-n2ncc3c2[C@H](C)CN(C(=O)[C@@](C)(O)C(F)(F)F)C3)n1 [Compound A36, (R)-3,3,3-Trifluoro-1-[(R)-1-(5-fluoro-2-methoxy-pyrimidin-4-yl)-7-methyl-1,4,6,7-tetrahydro-pyrazolo[4,3-c]pyridin-5-yl]-2-hydroxy-2-methyl-propan-1-one] | 0.3 to 3 | – | –
6 | C[C@@](O)(C(=O)N1CCc2c(ncn2-c2ccc(F)cc2)C1)C(F)(F)F [Compound A44, (R)-3,3,3-Trifluoro-1-[1-(4-fluoro-phenyl)-1,4,6,7-tetrahydro-imidazo[4,5-c]pyridin-5-yl]-2-hydroxy-2-methyl-propan-1-one] | 0.3 to 3 | – | 3 to 50
7 | C[C@H]1CN(C(=O)[C@@](C)(O)C(F)(F)F)Cc2cnn(-c3ccc(F)cc3)c21 [Compound A15, (R)-3,3,3-Trifluoro-1-[(S)-1-(4-fluoro-phenyl)-7-methyl-1,4,6,7-tetrahydro-pyrazolo[4,3-c]pyridin-5-yl]-2-hydroxy-2-methyl-propan-1-one] | 0.3 to 3 | – | 0.3 to 3
8 | C[C@H]1CN(C(=O)[C@@](C)(O)C(F)(F)F)Cc2cnn(C3CCC(O)CC3)c21 (stereo partly drawn) [Compound A39, (R)-3,3,3-Trifluoro-2-hydroxy-1-[(S)-1-(4-hydroxy-cyclohexyl)-7-methyl-1,4,6,7-tetrahydro-pyrazolo[4,3-c]pyridin-5-yl]-2-methyl-propan-1-one] | 0.3 to 3 | – | –
9 | C[C@H]1CN(C(=O)[C@@](C)(O)C(F)(F)F)Cc2cn[nH]c21 [Compound A29, (R)-3,3,3-Trifluoro-2-hydroxy-2-methyl-1-((S)-7-methyl-1,4,6,7-tetrahydro-pyrazolo[4,3-c]pyridin-5-yl)-propan-1-one] | 0.3 to 3 | 0.3 to 3 | –
10 | C[C@@](O)(C(=O)N1CCc2nn(-c3ccc(Cl)cc3)cc2C1)C(F)(F)F [Compound A2, (2R)-1-[2-(4-chlorophenyl)-6,7-dihydro-4H-pyrazolo[4,3-c]pyridin-5-yl]-3,3,3-trifluoro-2-hydroxy-2-methyl-propan-1-one] | 3 to 50 | 0.3 to 3 | –
11 | C[C@H]1CN(C(=O)[C@@](C)(O)C(F)(F)F)Cc2cnc(-c3ncc(F)cc3F)n21 [Compound A56, (R)-1-[(S)-3-(3,5-Difluoro-pyridin-2-yl)-5-methyl-5,6-dihydro-8H-imidazo[1,5-a]pyrazin-7-yl]-3,3,3-trifluoro-2-hydroxy-2-methyl-propan-1-one] | 3 to 50 | – | –
12 | C[C@H]1CN(C(=O)[C@@](C)(O)C(F)(F)F)Cc2cnc(-c3ccc(F)cc3F)n21 [Compound A55, (R)-1-[(S)-3-(2,4-Difluoro-phenyl)-5-methyl-5,6-dihydro-8H-imidazo[1,5-a]pyrazin-7-yl]-3,3,3-trifluoro-2-hydroxy-2-methyl-propan-1-one] | 0.3 to 3 | – | –
13 | C[C@H]1CN(C(=O)[C@@](C)(O)C(F)(F)F)Cc2cnc(-c3ccc(F)cc3)n21 [Compound A53, (R)-3,3,3-Trifluoro-1-[(S)-3-(4-fluoro-phenyl)-5-methyl-5,6-dihydro-8H-imidazo[1,5-a]pyrazin-7-yl]-2-hydroxy-2-methyl-propan-1-one] | 3 to 50 | – | –
14 | C[C@H]1CN(C(=O)[C@@](C)(O)C(F)(F)F)Cc2cnn(-c3ccccc3C#N)c21 [Compound A27, 2-[(S)-7-Methyl-5-((R)-3,3,3-trifluoro-2-hydroxy-2-methyl-propionyl)-4,5,6,7-tetrahydro-pyrazolo[4,3-c]pyridin-1-yl]-benzonitrile] | 0.3 to 3 | – | –
15 | C[C@H]1CN(C(=O)[C@@](C)(O)C(F)(F)F)Cc2cnn(-c3ncc(F)cc3F)c21 [Compound A35, (R)-1-[(S)-1-(3,5-Difluoro-pyridin-2-yl)-7-methyl-1,4,6,7-tetrahydro-pyrazolo[4,3-c]pyridin-5-yl]-3,3,3-trifluoro-2-hydroxy-2-methyl-propan-1-one] | 0.3 to 3 | – | –
16 | C[C@H]1CN(C(=O)[C@@](C)(O)C(F)(F)F)Cc2cnn(-c3ccc(F)cn3)c21 [Compound A41, (R)-3,3,3-Trifluoro-1-[(S)-1-(5-fluoro-pyridin-2-yl)-7-methyl-1,4,6,7-tetrahydro-pyrazolo[4,3-c]pyridin-5-yl]-2-hydroxy-2-methyl-propan-1-one] | 3 to 50 | – | –
17 | C[C@@H]1CN(C(=O)[C@@](C)(O)C(F)(F)F)Cc2cnn(-c3ccccc3C#N)c21 [Compound A26, 2-[(R)-7-Methyl-5-((R)-3,3,3-trifluoro-2-hydroxy-2-methyl-propionyl)-4,5,6,7-tetrahydro-pyrazolo[4,3-c]pyridin-1-yl]-benzonitrile] | 3 to 50 | – | –
18 | C[C@H]1CN(C(=O)[C@@](C)(O)C(F)(F)F)Cc2cnn(C(C)(C)C)c21 [Compound A23, (R)-1-((S)-1-tert-Butyl-7-methyl-1,4,6,7-tetrahydro-pyrazolo[4,3-c]pyridin-5-yl)-3,3,3-trifluoro-2-hydroxy-2-methyl-propan-1-one] | 3 to 50 | – | –
19 | C[C@@](O)(C(=O)N1CCn2c(nnc2-c2ccccc2)C1)C(F)(F)F [Compound A48, (R)-3,3,3-Trifluoro-2-hydroxy-2-methyl-1-(3-phenyl-5,6-dihydro-8H-[1,2,4]triazolo[4,3-a]pyrazin-7-yl)-propan-1-one] | 0.3 to 3 | < 0.3 | –
